According to US20220073496A1, “NOVEL QUINOLINE DERIVATIVE INHIBITOR” (Nanjing Transthera Biosciences Co., Ltd., priority 2018, published 2022):
Where two headings read alike, the source gives them in different places.

Key:
Rat PK evaluation = type: in vivo; conditions: SD rats; for Vz_obs iv (apparent distribution volume) / bioavailability / AUC(0-t) / clearance / half-life: n = 3; for bioavailability / AUC(0-t) / clearance / half-life / Tmax: rat, plasma; for bioavailability: read-out: F % (absolute bioavailability); for clearance: read-out: Cl_obs iv (clearance rate) (converted); for Tmax: n = 3, median, read-out: Tmax po (time to peak plasma concentration)
Protocol: Assay 2: Rat PK Evaluation for the Compounds of the Present Invention
Animal Administration and Sample Collection:
(§1) The test compounds 14, 15, 16, 20, 29, 30, 31, 32, 33, 34, 36, 37, 47 and 48 were dissolved in 5% DMSO+20% (30% solutol)+75% saline to prepare the compound solutions. Each of the compound solutions was intragastrically administered to SD rats at a dose of 5.0 mg/kg. The time points of blood collection were: 15 minutes, 30 minutes, 1 hour, 2 hours, 4 hours, 6 hours, 8 hours, 24 hours, 30 hours, and 48 hours.
The test compounds 38, 39, 40 and 41 were dissolved in 5% NMP+5% Tween-80+90% saline to prepare the compound solutions. Each of the compound solutions was intragastrically administered to SD rats at a dose of 5.0 mg/kg. The time points of blood collection were: 15 minutes, 30 minutes, 1 hour, 2 hours. 4 hours, 6 hours, 8 hours, 24 hours, 30 hours, and 48 hours.
as §1, with “was” for “was intragastrically”, “administered by intravenous bolus injection” for “administered”, “1” for “5.0”, “were: 5 minutes,” for “were:”, “hours,” for “hours, 30 hours,”
The test compounds 38, 39, 40 and 41 were dissolved in 5% NMP+5% Tween-80+90% saline to prepare the compound solutions. Each of the compound solutions was administered by intravenous bolus injection to SD rats at a dose of 1 mg/kg. The time points of blood collection were: 5 minutes, 15 minutes, 30 minutes, 1 hour, 2 hours, 4 hours, 6 hours, 8 hours, 24 hours, and 48 hours.
The animal was fixed. The tail was heated in a water bath pot 10 minutes before each time point. About 100 μL of blood was collected through the tail vein. The blood was collected and placed in an anti-coagulation tube containing EDTA-K2. The blood sample was centrifuged at 8000 rpm for 6 minutes at 4° C. to obtain a plasma sample. The plasma was prepared within 30 minutes after the blood collection. The plasma was stored in a −80° C. refrigerator before testing.
The sample to be tested was taken out from the −80° C. refrigerator, naturally melted at room temperature and vortexed for 5 minutes. 20 μL of plasma sample was accurately pipetted into a 1.5 mL centrifuge tube. 200 μL of an internal standard working solution (a solution of tolbutamide in methanol) having a concentration of 100 ng/mL was added and mixed well. The mixture was vortexed for 5 minutes, and centrifuged at 12000 rpm for 5 minutes. 50 μL of the supernatant was accurately pipetted into a 96-well plate pre-filled with 150 μL/well of water. The plate was vortexed for 5 minutes and mixed well, and then the LC-MS/MS determination and analysis were performed.
The concentration of the test substance was output using Analyst 1.6.3 from AB Company. Parameters such as mean, standard deviation, and coefficient of variation were calculated with Microsoft Excel (direct outputs from Analyst 1.6.3 were not calculated), and the PK parameters were calculated using Pharsight Phoenix 6.1 software NCA (Tmax was the median).

[1] = Stability in liver microsome of dogs; type: in vitro ADME; conditions: Dog liver microsome 0.5 mg protein/mL, compound 1 μM, 37° C.; for half-life at 1 μM / microsomal CLint at 1 μM: liver microsomes
Protocol: Assay 1: Stability assessment of the compounds of the present invention in liver microsome of mice and dogs
Test substances: the compounds of the present invention, wherein the structures and preparations thereof were as described above.
The composition of the incubation system:
Preparation of Test Substances:
An appropriate amount of the compound was accurately weighed and dissolved in DMSO to prepare a 5.0 mM stock solution. The 5.0 mM stock solution was diluted to 1.0 mM with DMSO, and finally diluted with water to a 10 μM test substance working solution for use (the DMSO content in the reaction system was 0.1%).
(1) The liver microsome (20 mg protein/mL) was taken out from the −80° C. refrigerator, pre-incubated at 37° C. with a water-bathing constant temperature vibrator for 3 minutes, and melted for use.
(2) A mixed solution of the incubation system (excluding compounds and β-NADPH) according to the above “composition of the incubation system” for the assay was prepared, and pre-incubated at 37° C. with a water-bathing constant temperature vibrator for 2 minutes.
(3) Control group (excluding β-NADPH): 30 μL of water and 30 μL of compound working solution (10 μM) were added to 240 μL of the mixed solution of the incubation system of step (2), and vortexed for 30 seconds to mix well. The total reaction volume was 300 μL. A duplicate sample was prepared. The sample was incubated at 37° C. with a water-bathing constant temperature vibrator. The timekeeping began and the sampling time points were set at 0 minute and 60 minutes.
(4) Sample group: 70 μL of β-NADPH solution (10 mM) and 70 μL of compound working solution (10 μM) were added to 560 μL of the mixed solution of step (2). The total reaction volume was 700 μL. The resulting mixture was vortexed for 30 seconds to mix well. A duplicate sample was prepared. The sample was incubated at 37° C. with a water-bathing constant temperature vibrator. The timekeeping began and the sampling time points were set at 0 minute, 5 minutes, 10 minutes, 20 minutes, 30 minutes, and 60 minutes after timekeeping.
(5) After vortexing for 3 minutes, the sample was centrifuged at 4000 rpm for 10 minutes.
(6) 50 μL of the supernatant was taken and 150 μL of water was added. The resulting mixture was vortexed to mix well, and analyzed by LC/MS/MS.
The half-life (t1/2) and clearance rate (Cl) were calculated using the following first-order kinetic formula:
Vd=1/protein content in liver microsome
Note: k was the slope of the logarithm of the remaining amount of the compound versus time, and Vd was the apparent distribution volume.

[2] = IV 1 mg/kg, read-out: AUClast iv (area under the drug-time curve from 0 to 48 hours)
[3] = IV 1 mg/kg, read-out: tz1/2 iv (terminal elimination half-life) (converted)
[4] = PO 5 mg/kg, read-out: AUClast po (area under the drug-time curve from 0 to 48 hours)
[5] = PO 5 mg/kg, read-out: tz1/2 po (terminal elimination half-life) (converted)

Compound	Vz_obs iv (apparent distribution volume) (Rat PK evaluation; IV 1 mg/kg) [L/kg]	bioavailability (Rat PK evaluation; IV 1 mg/kg, PO 5 mg/kg) [%]	AUC(0-t) (Rat PK evaluation; [2]) [ng·h/mL]	clearance (Rat PK evaluation; IV 1 mg/kg) [mL/min/kg]	half-life (Rat PK evaluation; [3]) [min]	Tmax (Rat PK evaluation; PO 5 mg/kg) [h]	AUC(0-t) (Rat PK evaluation; [4]) [ng·h/mL]	half-life (Rat PK evaluation; [5]) [min]	half-life at 1 μM [1] [min]	microsomal CLint at 1 μM [1] [µL/min/mg]	t1/2 [1]
COc1cc2nccc(Oc3ccc(NC(=O)c4nn(C(C)C)cc(-c5ccc(F)cc5)c4=O)cn3)c2cc1OC [Compound 29, N-(6-((6,7-dimethoxyquinolin-4-yl)oxy)pyridin-3-yl)-1-isopropyl-4-oxo-5-para-fluorophenyl-1,4-dihydropyridazine-3-carboxamide]	0.42	59.1	78600	0.6	822	4	246000	732	131	10.6	
COc1cc2nccc(Oc3ccc(NC(=O)c4cn(C5CC5)cc(-c5ccc(F)cc5)c4=O)nc3)c2cc1OC [Compound 30, N-(5-((6,7-dimethoxyquinolin-4-yl)oxy)pyridin-2-yl)-1-cyclopropyl-4-oxo-5-para-fluorophenyl-1,4-hydropyridin-3-carboxamide]	0.30	78.7	41400	0.4	521	6	152000	804	56.3	24.6	
COc1cc2nccc(Oc3ccc(NC(=O)c4nn(C5CC5)cc(-c5ccc(F)cc5)c4=O)nc3)c2cc1OC [Compound 31]	0.14	27.7	224000	0.05	1960	4	310000	1150			→∞
COc1cc2nccc(Oc3cnc(NC(=O)c4cn(C5CC5)cc(-c5ccc(F)cc5)c4=O)nc3)c2cc1OC [Compound 32, 1-cyclopropyl-N-(5-((6,7-dimethoxyquinolin-4-yl)oxy)pyrimidine-2-yl)-5-(4-fluorophenyl)-4-oxo-1,4-dihydropyridin-3-carboxamide]	0.23	75.4	23900	0.75	224	4	90500	302	210	6.6	
COc1cc2nccc(Oc3cnc(NC(=O)c4nn(C5CC5)cc(-c5ccc(F)cc5)c4=O)nc3)c2cc1OC [Compound 33]	0.146	31.7	55700	0.3	328	2	88800	284			→∞

The next lines start with the values.

Vz_obs iv (apparent distribution volume) (Rat PK evaluation; IV 1 mg/kg) [L/kg]	bioavailability (Rat PK evaluation; IV 1 mg/kg, PO 5 mg/kg) [%]	AUC(0-t) (Rat PK evaluation; [2]) [ng·h/mL]	clearance (Rat PK evaluation; IV 1 mg/kg) [mL/min/kg]	half-life (Rat PK evaluation; [3]) [min]	Tmax (Rat PK evaluation; PO 5 mg/kg) [h]	AUC(0-t) (Rat PK evaluation; [4]) [ng·h/mL]	half-life (Rat PK evaluation; [5]) [min]	half-life at 1 μM [1] [min]	microsomal CLint at 1 μM [1] [µL/min/mg]	t1/2 [1]	Compound
0.15	80.4	81000	0.217	448	4	321000	499	495	2.8		COc1cc2nccc(Oc3ncc(NC(=O)c4nn(C(C)C)cc(-c5ccc(F)cc5)c4=O)cn3)c2cc1OC [Compound 34, N-(2-((6,7-dimethoxyquinolin-4-yl)oxy)pyrimidine-5-yl)-5-para-fluorophenyl-1-isopropyl-4-oxo-1,4-dihydropyridazine-3-carboxamide]
0.095	57.5	167000	0.0967	696	4	463000	762	116	12		COc1cc2nccc(Oc3ccc(NC(=O)c4nn(C5CC5)cc(-c5ccc(F)cc5)c4=O)cn3)c2cc1OC [Compound 36]
0.12	78.7	69700	0.233	359	4	273000	464	169	8.2		COc1cc2nccc(Oc3ncc(NC(=O)c4nn(C5CC5)cc(-c5ccc(F)cc5)c4=O)cn3)c2cc1OC [Compound 37, 1-cyclopropyl-N-(2-((6,7-dimethoxyquinolin-4-yl)oxy)pyrimidine-5-yl)-5-para-fluorophenyl-4-oxo-1,4-dihydropyridazine-3-carboxamide]
1.21	90.2	6920	2.5	353	2	32400	340			→∞	COc1cc2nccc(Oc3cnc(NC(=O)c4cn(C(C)C)nc(-c5ccc(F)cc5)c4=O)nc3)c2cc1OC [Compound 39, N-(5-((6,7-dimethoxyquinolin-4-yl)oxy)pyrimidine-2-yl)-6-(4-fluorophenyl)-2-isopropyl-5-oxo-2,5-dihydropyridazine-4-carboxamide]
1.84	63.4	7270	2.33	551	4	23000	521			→∞	COc1cc2nccc(Oc3ncc(NC(=O)c4cn(C(C)C)nc(-c5ccc(F)cc5)c4=O)cn3)c2cc1OC [Compound 40, N-(2-((6,7-dimethoxyquinolin-4-yl)oxy)pyrimidine-5-yl)-6-(4-fluorophenyl)-2-isopropyl-5-oxo-2,5-dihydropyridazine-4-carboxamide]
